One assay deals with T1, KRAS G12C (Homo sapiens, UniProt P01116, G12C).
T1 construct: HIS-KRAS (G12C, aa 2-185, Sino biological); purchased Sino biological
Kind of assay: SOS1 catalyzed nucleotide exchange assay (TR-FRET). The conditions noted are these: GDP-loaded HIS-KRAS(G12C), 1 hour pre-incubation with compound. Format: biochemical. The method, then: 1. SOS1 Catalyzed Nucleotide Exchange Assay
HIS-KRAS (G12C, aa 2-185, Sino biological) was diluted to […] EDTA buffer (20 mM HEPES, pH 7.4, 50 mM NaCl, 10 mM EDA, 0.01% (v/v) Tween-20) and incubated for 30 min at 25° C. The EDTA pretreated HIS-KRAS(G12C) was diluted to 12 nM in assay buffer (25 mM HEPES, pH 7.4, 120 mM NaCl, 5 mM MgCl2, 1 mM DTI, 0.01% (v/v) Tween 20, 0.1% (w/v) BSA) containing 120 nM GDP(Sigma) and Mab Anti 6HIS-Tb cryptate Gold(Cisbio) and incubated for 1 hour at 25° C. to prepare GDP-loaded HIS-KRAS(G12C). The GDP-loaded HIS-KRAS(G12C) was pre-incubation with diluted compounds in a 384-well plate (Greiner) for 1 hour, then purified SOS 1ExD (Flag tag, aa 564-1049) and BODIPY™FL GTP (Invitrogen) were added to the assay wells (Final concentration: 3 nM HIS-KRAS(G12C), 2 μM SOS1 ExD, 80 nM BODIPY™FL GTP, 21 ng/mL MAb Anti 6HS-Tb cryptate Gold) and incubated for 4 hours at 25° C. TR-FRET signals were then read on Tecan Spark multimode microplate reader. The parameters were F486: Excitation 340 (35) nm, Emission 486 (10) nm, Lag time 100 μs, Integration time […]; F515: Excitation 340 (35) nm, Emission 515 (10) nm, Lag time […], Integration time 200 s. TR-FRET ratios for each individual wells were calculated by equation: TR-FRET ratio=(Signal F515/Signal F486)*10000. Then the data were analyzed using a 4-parameter logistic model to calculate IC50 values.
Background: In TR-FRET formats the signal depends on donor and acceptor labels being close together.

The test system of assay [1] is NCI-H358 cells express KRAS G12C. As to the kind of experiment: Cell growth inhibition assay (CCK-8). It is filed as cell-based. To be noted: Homo sapiens, 144 h; NCI-H358, 6 days incubation. How it is done: 3. Cell Growth inhibition assay
NCI-H358 cells express KRAS G12C were cultured in RPMI 1640 medium (Gibco) containing 10% fetal bovine serum (Gibco). Cells in culture medium were plated in 96-well plates at a concentration of 3000 cells/well ([…]) and allowed to attach overnight. The next day, compounds were diluted in culture medium and added to the plates. After 6 days incubation in a 37° C./5% CO2 cell incubator, the medium was removed, then 100 μL of 1×CCK-8 (MCE) in culture medium was added in each well. The plates were incubated 1.5-2 hours in a 37° C./5% CO2 cell incubator. OD450 signals were read on Tecan Spark multimode microplate reader and analyzed using a 4-parameter logistic model to calculate IC50 values.

Assay [2] deals with Phospho-ERK1/2(THR202/TYR204) in NCI-H358 cells express KRAS G12C. Kind of assay: Phospho-ERK1/2(THR202/TYR204) HTRF assay. It is filed as cell-based. To be noted: Homo sapiens; NCI-H358, 2 hours incubation; read-out: p-ERK inhibition in NCI-H358 IC50. How it is done: NCI-H358 cells express KRAS G12C were cultured in RPMI 1640 medium (Gibco) containing 10% fetal bovine serum (Gibco). Cells in culture medium were plated in 96-well plates at a concentration of 40,000 cells/well and allowed to attach overnight. The next day, culture medium was removed and added compounds diluted in assay medium (RPMI 1640, 0.1% EFBS). After 2 hours incubation in a 37° C./5% CO2 cell incubator, the assay medium was removed, then 50 μL of 1× supplemented lysis buffer (Cisbio) was added and the plates were incubated at 25° C. for 45 min with shaking. 10 μL of cell lysates from the 96-well plates were transferred to a 384-well plate (Greiner) containing 2.5 µL/well HTRF® pre-mixed antibodies (Cisbio 64AERPEH).
Incubate 4 hours at 25° C. and then read HTRF signals on Tecan Spark multimode microplate reader. The data were analyzed using a 4-parameter logistic model to calculate IC50 values.

Each structure is given as a SMILES string.

T1 sequence (P01116 2-185 isoform P01116-2 G12C): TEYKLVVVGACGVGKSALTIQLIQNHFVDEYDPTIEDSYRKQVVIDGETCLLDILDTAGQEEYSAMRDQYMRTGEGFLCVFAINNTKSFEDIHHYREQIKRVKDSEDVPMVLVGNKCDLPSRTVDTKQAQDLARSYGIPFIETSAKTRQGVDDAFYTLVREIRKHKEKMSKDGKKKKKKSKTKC

What is called IC50 is the point on the concentration scale where inhibition reaches its midpoint. As for `C=CC(=O)N1CCN(c2nc(OCC3(CN(C)C)CC3)nc3c2CCN(c2cccc4cccc(C)c24)C3)CC1CC#N` (stereo not drawn) [Compound 47, 2-(1-acryloyl-4-(2-((1-((dimethylamino)methyl)cyclopropyl)methoxy)-7-(8-methylnaphthalen-1-yl)-5,6,7,8-tetrahydropyrido[3,4-d]pyrimidin-4-yl)piperazin-2-yl)acetonitrile], the IC50 at KRAS G12C was 0.00116 µM; in assay [1], 0.0264 µM; in assay [2] it was 0.0237 µM.

For `C=CC(=O)N1CCN(c2nc(OCC3(N(C)C)CC3)nc3c2CCN(c2cccc4cccc(C)c24)C3)CC1CC#N` (stereo not drawn) [Compound 20, 2-(1-acryloyl-4-(2-((1-(dimethylamino)cyclopropyl)methoxy)-7-(8-methylnaphthalen-1-yl)-5,6,7,8-tetrahydropyrido[3,4-d]pyrimidin-4-yl)piperazin-2-yl)acetonitrile], the half-maximal inhibitory concentration (IC50) came to 0.0194 µM at KRAS G12C, 0.102 µM in assay [1] and 0.127 µM in assay [2].

Regarding `C=CC(=O)N1CCN(c2nc(OCC3(CN4CCCC4)CC3)nc3c2CCN(c2cccc4cccc(Cl)c24)C3)CC1CC#N` (stereo not drawn) [Compound 61, 2-(1-acryloyl-4-(7-(8-chloronaphthalen-1-yl)-2-((1-(pyrrolidin-1-ylmethyl)cyclopropyl)methoxy)-5,6,7,8-tetrahydropyrido[3,4-d]pyrimidin-4-yl)piperazin-2-yl)acetonitrile], the figures for the IC50 (at KRAS G12C; in assay [1]; in assay [2]) were 0.00144 µM, 0.0251 µM and 0.0162 µM, respectively.

Turning to `C/C=C/C(=O)N1CCN(c2nc(OCC3(CN4CCCC4)CC3)nc3c2CCN(c2cccc4cccc(C)c24)C3)CC1CC#N` (stereo not drawn) [Compound 74, (E)-2-(1-(but-2-enoyl)-4-(7-(8-methylnaphthalen-1-yl)-2-((1-(pyrrolidin-1-ylmethyl)cyclopropyl)methoxy)-5,6,7,8-tetrahydropyrido[3,4-d]pyrimidin-4-yl)piperazin-2-yl)acetonitrile], the IC50 is 0.0668 µM on KRAS G12C, 1.52 µM in assay [1] and > 0.5 µM in assay [2].

Turning to `C=CC(=O)N1CCN(c2nc(OCC3(CN(C)C)CC3)nc3c2CCN(c2cccc4sccc24)C3)CC1CC#N` (stereo not drawn) [Compound 51, 2-(1-acryloyl-4-(7-(benzo[b]thiophen-4-yl)-2-((1-((dimethylamino)methyl)cyclopropyl)methoxy)-5,6,7,8-tetrahydropyrido[3,4-d]pyrimidin-4-yl)piperazin-2-yl)acetonitrile], the IC50 on KRAS G12C was found to be 0.00328 µM; in assay [1] it was 0.0999 µM; in assay [2], 0.0771 µM.

Take `C=C(F)C(=O)N1CCN(c2nc(OCC3(CN4CCN(C)CC4)CC3)nc3c2CCN(c2cccc4cccc(C)c24)C3)CC1CC#N` (stereo not drawn) [Compound 71, 2-(1-(2-fluoroacryloyl)-4-(7-(8-methylnaphthalen-1-yl)-2-((1-((4-methylpiperazin-1-yl)methyl)cyclopropyl)methoxy)-5,6,7,8-tetrahydropyrido[3,4-d]pyrimidin-4-yl)piperazin-2-yl)acetonitrile]: the IC50 was found to be 0.00757 µM at KRAS G12C, 0.369 µM in assay [1] and 0.505 µM in assay [2].

For the compound `C=CC(=O)N1CCN(c2nc(OCC3(CN4CCC4)CC3)nc3c2CCN(c2cccc4cccc(Cl)c24)C3)CC1CC#N` (stereo not drawn) [Compound 42, 2-(1-acryloyl-4-(2-((1-(azetidin-1-ylmethyl)cyclopropyl)methoxy)-7-(8-chloronaphthalen-1-yl)-5,6,7,8-tetrahydropyrido[3,4-d]pyrimidin-4-yl)piperazin-2-yl)acetonitrile], the IC50 worked out at 0.00524 µM at KRAS G12C, 0.119 µM in assay [1] and 0.0636 µM in assay [2].

Regarding `C=C(F)C(=O)N1CCN(c2nc(OCC3(CN(C)C)CC3)nc3c2CCN(c2cccc4cccc(Cl)c24)C3)CC1CC#N` (stereo not drawn) [Compound 79, 2-(4-(7-(8-chloronaphthalen-1-yl)-2-((1-((dimethylamino)methyl)cyclopropyl)methoxy)-5,6,7,8-tetrahydropyrido[3,4-d]pyrimidin-4-yl)-1-(2-fluoroacryloyl)piperazin-2-yl)acetonitrile], the IC50 at KRAS G12C turned out to be 0.00603 µM; in assay [1] it was 0.239 µM; in assay [2] it was 0.439 µM.

Turning to `C=CC(=O)N1CCN(c2nc(OCC3CCCC(N(C)C)C3)nc3c2CCN(c2cccc4ccccc24)C3)CC1CC#N` (stereo not drawn) [Compound 15, 2-(1-acryloyl-4-(2-((3-(dimethylamino)cyclohexyl)methoxy)-7-(naphthalen-1-yl)-5,6,7,8-tetrahydropyrido[3,4-d]pyrimidin-4-yl)piperazin-2-yl)acetonitrile], the IC50 on KRAS G12C stood at 0.333 µM; in assay [1], 0.497 µM; in assay [2], 0.877 µM.

Consider `C=CC(=O)N1CCN(c2nc(OCC3(CN4CCCC4)CC3)nc3c2CCN(c2cccc(F)c2C(F)(F)F)C3)CC1CC#N` (stereo not drawn) [Compound 34, 2-(1-acryloyl-4-(7-(3-fluoro-2-(trifluoromethyl)phenyl)-2-((1-(pyrrolidin-1-ylmethyl)cyclopropyl)methoxy)-5,6,7,8-tetrahydropyrido[3,4-d]pyrimidin-4-yl)piperazin-2-yl)acetonitrile], for which the IC50 on KRAS G12C turned out to be 0.0159 µM; in assay [1], 0.0786 µM; in assay [2] it was 0.0546 µM.

For `C=CC(=O)N1CCN(c2nc(OCC3(CN(C)CCN(C)C)CC3)nc3c2CCN(c2cccc4cccc(C)c24)C3)CC1CC#N` (stereo not drawn) [Compound 64, 2-(1-acryloyl-4-(2-((1-(((2-(dimethylamino)ethyl)(methyl)amino)methyl)cyclopropyl)methoxy)-7-(8-methylnaphthalen-1-yl)-5,6,7,8-tetrahydropyrido[3,4-d]pyrimidin-4-yl)piperazin-2-yl)acetonitrile], the figures for the IC50 (at KRAS G12C; in assay [1]; in assay [2]) were 0.00169 µM, 0.0745 µM and 0.124 µM, respectively.

On to `C=C(F)C(=O)N1CCN(c2nc(OCC3(CN(CC)CC)CC3)nc3c2CCN(c2cccc4cccc(C)c24)C3)CC1CC#N` (stereo not drawn) [Compound 76, 2-(4-(2-((1-((diethylamino)methyl)cyclopropyl)methoxy)-7-(8-methylnaphthalen-1-yl)-5,6,7,8-tetrahydropyrido[3,4-d]pyrimidin-4-yl)-1-(2-fluoroacryloyl)piperazin-2-yl)acetonitrile], for which the IC50 on KRAS G12C stood at 0.0117 µM; in assay [1], 0.421 µM; in assay [2] it was 0.354 µM.

With `Cc1cccc2cccc(N3CCc4c(nc(OCC5(CN(C)C)CC5)nc4N4CCN(C(=O)/C=C/CO)C(CC#N)C4)C3)c12` (stereo not drawn) [Compound 69, (E)-2-(4-(2-((1-((dimethylamino)methyl)cyclopropyl)methoxy)-7-(8-methylnaphthalen-1-yl)-5,6,7,8-tetrahydropyrido[3,4-d]pyrimidin-4-yl)-1-(4-hydroxybut-2-enoyl)piperazin-2-yl)acetonitrile], the IC50 at KRAS G12C worked out at 0.00273 µM; in assay [1] it was 0.0776 µM; in assay [2], 0.157 µM.

Consider `C=CC(=O)N1CCN(c2nc(OCC3CCC(N(C)C)C3)nc3c2CCN(c2cccc4cccc(C)c24)C3)CC1CC#N` (stereo not drawn) [Compound 24, 2-(1-acryloyl-4-(2-((3-(dimethylamino)cyclopentyl)methoxy)-7-(8-methylnaphthalen-1-yl)-5,6,7,8-tetrahydropyrido[3,4-d]pyrimidin-4-yl)piperazin-2-yl)acetonitrile], for which the figures for the IC50 (at KRAS G12C; in assay [1]; in assay [2]) were 0.0201 µM, 0.0936 µM and 0.237 µM, respectively.

Source of the values: US20210040089A1, “KRAS MUTANT PROTEIN INHIBITORS” (Jacobio Pharmaceuticals Co., Ltd., priority 2019, published 2021).
